Data set [1] relates to Rat Insulinoma cell lines (RIN-5F). In words: β-cell assay for protection against gluco-lipo toxicity (diabetes model). It is filed as cell-based. The conditions noted are these: RIN-5F cells treated with glucose and Palmitate-BSA complex, 18 hrs, neutral red; change with respect to Control 2 (glucose and Palmitate only); wt % of ingredients as per example.
Description: This RPMI 1640 medium contains 2 g/L of glucose supplemented with 25 mM HEPES (4-(2-hydroxyethyl)-1-piperazineethanesulfonic acid, SRL Cat No: 084023C).
After that a complete medium was prepared by adding 100 μL of 100 mM Sodium pyruvate (Sigma, Cat No: P5280) and 10% (vv) in 100 mL of RPMI 1640.
100 μL/well of complete medium with the added Rat Insulinoma cell (RIN-5F, ATCC (USA)) was plated in a 96 well flat bottom plate (NEST Biotechnology Co. Ltd, Cat No 701001) so that the cell concentration is maintained at a level of 3.5×10^4 cells/well. This plate was then introduced in an incubator (Thermo Scientific, Model 3111; conditions: 5% CO2, at 37° C.) for 24 hours.
2.267 g of ultra Fatty Acid Free BSA (Roche applied sciences, Cat No: 03117405001) was added to 100 mL of 150 mM NaCl and stirred constantly at a maintained temperature of ˜37° C. […] After that this solution was filtered with a syringe filter of pore size of 0.22 μm (Millipore®, Cat no: SLGPO33RS). • 3. […]
After 4 hrs the neutral red medium was removed by aspiration using a micropipette and cells were washed with 100 μL/well of PBS solution (same as prepared above) to remove the excess stain. […] The colorimetric reading (absorbance) of the bound stain was read at a wavelength of 540 nm in a microwell plate reader (BIO-RAD LAB INDIA, Model No. 680). The efficacy of the test ingredients were evaluated with respect to the Control 2.
Data set [2] shares this test system. The conditions noted are these: 24 h.
Description: Before starting the experiment it was needed to determine the cytotoxic dose for the Inula racemosa extract and theobromine. The cytotoxicity of both materials was determined as follows by Neutral red assay:
The Rat Insulinoma cell lines (RIN-5F, ATCC (USA)) was plated at a density of 3.5×10^4 cells/well (Volume 100 μL) in a 96 well plate (NEST Biotechnology Co. Ltd, Cat No 701001) and placed it in an incubator (Thermo Scientific, Model 3111; conditions: 5% CO2, at 37° C.) for 24 hours. After the incubation 10 μL of Inula racemosa water extract (at different concentration e.g. 10%, 1%, 0.1%, 0.01%, 0.001%, 0.0001% and 0.00001%) and 10 μL of theobromine solution (at different concentration e.g. 10%, 1%, 0.1%, 0.01%, 0.001%, 0.0001% and 0.00001%) were added to the culture and incubated for 24 hours in the same incubator. As a control in some wells there was no addition of either Inula racemosa or theobromine (only medium and cells). […]
The bound stain was extracted out from the cells by adding 150 μL of desorption solution and dissolved the dye completely. […] The absorbance of the stain extracted out from the cells was measured at 540 nm in a microwell plate reader (BIO-RAD LAB INDIA, Model No. 680).
The percentage of live cells was calculated using the below mentioned formula: […]

For the compound `Cn1cnc2c1c(=O)[nH]c(=O)n2C` [E, Theobromine], the “% change in cell viability” value in data set [1] is given as 5 ± 2%.
`Cn1cnc2c1c(=O)[nH]c(=O)n2C` [theobromine, 3,7-dimethylxanthine] came in with a non-cytotoxic concentration in data set [2] of at most 0.001%.

The values above are taken from patent US9393276B2, “Edible composition” (Conopco,Inc., priority 2012, dated 2016).
